Experimental data from patent US20190241569A1, “3-(ARYL OR HETEROARYL) METHYLENEINDOLIN-2-ONE DERIVATIVES AS INHIBITORS OF CANCER STEM CELL PATHWAY KINASES FOR THE TREATMENT OF CANCER” (Boston Biomedical, Inc., priority 2013, published 2019).
Counter-ions that a name gives are not always drawn.

Assays:
[1] = molecular target: T1, human RIOK2 protein (Homo sapiens, UniProt Q9BVS4); assay: RIOK2 autophosphorylation ELISA (Test Example 4); assay type: biochemical; conditions: for inhibition at 1 µM: read-out: Inhibitory activity at 1 μM (%); for inhibition at 10 µM: read-out: Inhibitory activity at 10 μM (%)
T1 construct: glutathione S-transferase is fused to N-terminal of a full-length human RIOK2 protein; GST (glutathione S-transferase) (N); purchased CarnaBio, Inc; host or cells: baculovirus-Sf21 cell expression system
Experimental: A protein in which glutathione S-transferase is fused to N-terminal of a full-length human RIOK2 protein was used as a recombinant human RIOK2 protein. The protein was prepared using a baculovirus-Sf21 cell expression system from CarnaBio, Inc. A kinase reaction solution was prepared by mixing 25 μg/mL of the recombinant human RIOK2 protein and 100 μM of ATP in 20 μl of kinase reaction buffer (50 mM Tris-HCl, 10 mM MgCl2, 10 mM MnCl2, 1 mM DTT, 0.01% Brij, 1× PhosSTOP (manufactured by Roche Applied Science)), and was incubated at a temperature of 30° C. for 1 hour. After adding 30 μl of 40 mM EDTA solution to this kinase reaction solution, the kinase reaction solution was transferred to a MaxiSorp 96 well plate (manufactured by Nunc). Thereafter, phosphorylated human RIOK2 protein was allowed to adsorb onto the wells by leaving the plate in a refrigerator overnight.
The following day, the supernatant was removed, and the wells were washed three times with ELISA buffer (20 mM Tris-HCl, 150 mM NaCl, 0.2% Tween-20, 0.1% BSA). Thereafter, 100 μl of Blocking-One P (product name; manufactured by Nacalai Tesque, Inc.) was applied to the wells, and a blocking treatment was performed for 1 hour at room temperature. […] After further washing the wells, a secondary antibody, anti-rabbit IgG conjugated with horseradish peroxidase (manufactured by Jackson ImmunoResearch; 1/4000 ELISA buffer-diluted solution), was applied to the wells, and incubation was performed for 30 minutes at room temperature. After washing the wells once again, 50 μl of tetramethyl benzidine (TMB) aqueous solution (manufactured by Nacalai Tesque, Inc.) was applied to the wells, and a coloring reaction was performed for 30 minutes at room temperature. Thereafter, the coloring reaction was stopped by adding 50 μl of 2M H2SO4 to the wells. An absorptiometric level of 450 nm was measured in each well using ARVO SX (manufactured by Wallac).

[2] = tested on: FaDu CSC; assay: Cancer stem cells, Cell Titer-Glo 72 hours (Test Example 3); assay type: cell-based; conditions: Homo sapiens, FaDu, 72 h
[3] = tested on: ACHN; assay: Bulk cancer cells, Cell Titer-Glo 72 hours (Test Example 2); assay type: cell-based; conditions: Homo sapiens, ACHN, 72 h
Experimental: (§1) Tubes of 3× drug (60 uM in 500 uL complete media) were prepared from 5 mM stock solutions in DMSO. […] To treat cells, 50 uL of drug from the dilution plate was removed and added to the cell plates. […] Cells were harvested 72 hours after drug addition using Cell Titer-Glo (Promega) and luminescence measured on a plate reader.

[4] = tested on: FaDu; assay: as above; assay type: cell-based; conditions: Homo sapiens
Experimental: as §1

[5] = tested on: A549; assay: as above; assay type: cell-based; conditions: Homo sapiens
Experimental: as §1

[6] = tested on: A549 CSC; assay: Cancer stem cells, Cell Titer-Glo 72 hours (Test Example 3); assay type: cell-based; conditions: Homo sapiens
[7] = tested on: ACHN CSC; assay: as above; assay type: cell-based; conditions: Homo sapiens, ACHN, 72 h

T1 sequence (Q9BVS4 whole entry, the tested form may be a part): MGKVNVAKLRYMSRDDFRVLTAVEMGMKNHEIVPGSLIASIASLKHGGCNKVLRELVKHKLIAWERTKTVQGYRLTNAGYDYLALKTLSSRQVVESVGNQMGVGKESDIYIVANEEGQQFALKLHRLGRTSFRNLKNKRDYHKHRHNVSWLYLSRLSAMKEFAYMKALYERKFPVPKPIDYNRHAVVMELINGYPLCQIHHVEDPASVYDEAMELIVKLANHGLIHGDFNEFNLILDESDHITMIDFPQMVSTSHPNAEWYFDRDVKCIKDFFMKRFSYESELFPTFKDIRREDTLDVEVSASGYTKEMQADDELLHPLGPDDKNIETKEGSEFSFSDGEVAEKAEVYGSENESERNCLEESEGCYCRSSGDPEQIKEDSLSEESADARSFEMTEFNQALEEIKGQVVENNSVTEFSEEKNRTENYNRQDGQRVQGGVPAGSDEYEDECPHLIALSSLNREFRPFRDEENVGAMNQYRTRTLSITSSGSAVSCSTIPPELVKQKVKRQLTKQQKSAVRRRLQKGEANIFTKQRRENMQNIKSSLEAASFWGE

| Compound | inhibition at 1 µM [1] [%] | inhibition at 10 µM [1] [%] | other results |
| --- | --- | --- | --- |
| Cc1[nH]c(/C=C2\C(=O)Nc3ccc(-c4cnn(-c5ccccc5)c4)cc32)c(C)c1C(=O)N[C@@H]1CCCNC1 [Example 89] | 22 | 130 | – |
| CCN(CC)CCNC(=O)c1c(C)[nH]c(/C=C2\C(=O)Nc3ccc(-c4ccc(-c5ccccc5)s4)cc32)c1C [Example 1, (Z)-N-(2-(diethylamino)ethyl)-2,4-dimethyl-5-((2-oxo-5-(5-phenylthiophen-2-yl)indolin-3-ylidene)methyl)-1H-pyrrole-3-carboxamide] | – | 14 | IC50 [2]: 1200 nM; IC50 [3]: 7.6 µM; IC50 [4]: 4.74 µM |
| Cc1[nH]c(/C=C2\C(=O)Nc3ccc(-c4cnn(-c5ccccc5)c4)cc32)c(C)c1C(=O)NCc1nc2ccccc2[nH]1 [Example 99] | -11 | 79 | – |
| CCN(CC)CCN(C)C(=O)c1c(C)[nH]c(/C=C2\C(=O)Nc3ccc(-c4cnn(-c5ccccc5)c4)cc32)c1C [Example 92] | 3 | 113 | – |
| CCN(CC)CCNC(=O)c1c(C)[nH]c(/C=C2\C(=O)Nc3ccc(-c4ccnn4-c4cccc(OC)c4)cc32)c1C [Example 62] | 51 | 98 | – |
| CCN(CC)CCNC(=O)c1c(C)[nH]c(/C=C2\C(=O)Nc3ccc(-c4ccnn4-c4ccncc4)cc32)c1C [Example 66] | -6 | 44 | – |
| CCN(CC)CCNC(=O)c1c(C)[nH]c(/C=C2\C(=O)Nc3ccc(-c4cnn(-c5ccccc5Cl)c4)cc32)c1C [Example 71] | 4 | 99 | – |
| CCN(CC)CCCNC(=O)c1c(C)[nH]c(/C=C2\C(=O)Nc3ccc(-c4cnn(-c5ccccc5)c4)cc32)c1C [Example 90] | 20 | 96 | – |
| Cc1[nH]c(/C=C2\C(=O)Nc3ccc(-c4cnn(-c5ccccc5)c4)cc32)c(C)c1C(=O)NC1(CN2CCCCC2)CC1 [Example 97] | 6 | 107 | – |
| CCN(CC)CCNC(=O)c1c(C)[nH]c(/C=C2\C(=O)Nc3ccc(-c4cnn(-c5ncccn5)c4)cc32)c1C [Example 70] | 42 | 112 | – |
| CCN(CC)CCNC(=O)c1c(C)[nH]c(/C=C2\C(=O)Nc3ccc(-c4ccnn4-c4ccccn4)cc32)c1C [Example 63] | 14 | 93 | – |
| Cc1[nH]c(/C=C2\C(=O)Nc3ccc(-c4cnn(-c5ccccc5)c4)cc32)c(C)c1C(=O)NC[C@@H]1CCCN1 [Example 101] | 13 | 94 | – |
| CCN(CC)CCNC(=O)c1c(C)[nH]c(/C=C2\C(=O)Nc3ccc(-c4ccnn4-c4ccccc4F)cc32)c1C [Example 58] | 56 | 116 | – |
| CCN(CC)CCNC(=O)c1c(C)[nH]c(/C=C2\C(=O)Nc3ccc(-c4cnn(-c5ccncn5)c4)cc32)c1C [Example 69] | 40 | 109 | – |
| CCN(CC)CCNC(=O)c1c(C)[nH]c(/C=C2\C(=O)Nc3ccc(-c4cnccn4)cc32)c1C [Example 180] | – | – | IC50 [2]: 230 nM; IC50 [5]: 10.6 µM; IC50 [3]: 10.1 µM; IC50 [4]: 6.62 µM; IC50 [6]: 13.2 µM; IC50 [7]: 2650 nM |
| CCN(CC)CCNC(=O)c1c(C)[nH]c(/C=C2\C(=O)Nc3ccc(-c4ccc(OC)cc4C)cc32)c1C [Example 267] | – | – | IC50 [2]: 1400 nM; IC50 [5]: 1.74 µM; IC50 [3]: 2.26 µM; IC50 [4]: 2.31 µM; IC50 [6]: 4.61 µM; IC50 [7]: 1420 nM |
| O=C1Nc2ccc(-c3csc(C4CCNCC4)n3)cc2/C1=C/c1cc2ccccc2[nH]1 [Example 168] | – | – | IC50 [2]: 760 nM; IC50 [5]: 5.55 µM; IC50 [3]: 4.12 µM; IC50 [4]: 5.16 µM; IC50 [6]: 2.04 µM; IC50 [7]: 100 nM |
| CCN(CC)CCNC(=O)c1cc(C)c(/C=C2\C(=O)Nc3ccc(-c4csc(-c5ccccc5)n4)cc32)[nH]1 [Example 165] | – | – | IC50 [2]: 3130 nM; IC50 [5]: 4 µM; IC50 [3]: 14.9 µM; IC50 [4]: 11.4 µM; IC50 [6]: 26.7 µM; IC50 [7]: 4040 nM |

Second part, led by results:

| inhibition at 1 µM [1] [%] | inhibition at 10 µM [1] [%] | Compound | other results |
| --- | --- | --- | --- |
| 47 | 95 | CCN(CC)CCNC(=O)c1c(C)[nH]c(/C=C2\C(=O)Nc3ccc(-c4cnn(-c5cnccn5)c4)cc32)c1C [Example 68] | – |
| -13 | 69 | Cc1[nH]c(/C=C2\C(=O)Nc3ccc(-c4cnn(-c5ccccc5)c4)cc32)c(C)c1C(=O)NC1CNCC(c2ccccc2)C1 (stereo not drawn) [Example 96] | – |
| -2 | 25 | Cc1[nH]c(/C=C2\C(=O)Nc3ccc(-c4cnn(-c5ccccc5)c4)cc32)c(C)c1C(=O)NCCc1ncc[nH]1 [Example 98] | – |
| 18 | 87 | CCN(CC)CCNC(=O)c1c(C)[nH]c(/C=C2\C(=O)Nc3ccc(-c4ccnn4-c4ccc(Cl)c(Cl)c4)cc32)c1C [Example 65] | – |
| 1.4 | 122 | Cc1[nH]c(/C=C2\C(=O)Nc3ccc(-c4cnn(-c5ccccc5)c4)cc32)c(C)c1C(=O)N[C@H]1CCCNC1 [Example 88, (S,Z)-2,4-dimethyl-5-((2-oxo-5-(1-phenyl-1H-pyrazol-4-yl)indolin-3-ylidene)methyl)-N-(piperidin-3-yl)-1H-pyrrole-3-carboxamide hydrochloride] | – |
| -7 | 43 | CCOCCCNC(=O)c1c(C)[nH]c(/C=C2\C(=O)Nc3ccc(-c4cnn(-c5ccccc5)c4)cc32)c1C [Example 91] | – |
| 39 | 104 | CCN(CC)CCNC(=O)c1c(C)[nH]c(/C=C2\C(=O)Nc3ccc(-c4ccnn4-c4ccc(F)cc4)cc32)c1C [Example 57] | – |
| 22 | 134 | Cc1[nH]c(/C=C2\C(=O)Nc3ccc(-c4cnn(-c5ccccc5)c4)cc32)c(C)c1C(=O)NC1[C@H]2CNC[C@@H]12 (stereo partly drawn) [Example 95] | – |
| – | 65 | Cc1[nH]c(/C=C2\C(=O)Nc3ccc(-c4ccc(-c5ccccc5)s4)cc32)c(C)c1C(=O)N1CCN(C)CC1 [Example 3] | IC50 [2]: 1160 nM; IC50 [4]: 25.4 µM |
| 7 | 65 | Cc1[nH]c(/C=C2\C(=O)Nc3ccc(-c4cnn(-c5ccccc5)c4)cc32)c(C)c1C(=O)NCC1(N)CCCC1 [Example 93] | – |
| 34 | 106 | CCN(CC)CCNC(=O)c1c(C)[nH]c(/C=C2\C(=O)Nc3ccc(-c4ccnn4-c4ccc(OC)cc4)cc32)c1C [Example 59] | – |
| 9 | 68 | CCN(CC)CCNC(=O)c1c(C)[nH]c(/C=C2\C(=O)Nc3ccc(-c4ccnn4-c4ccc(C(F)(F)F)cc4)cc32)c1C [Example 60] | – |
| 41 | 99 | CCN(CC)CCNC(=O)c1c(C)[nH]c(/C=C2\C(=O)Nc3ccc(-c4cnn(-c5cscn5)c4)cc32)c1C [Example 72] | – |
| 18 | 111 | CCN(CC)CCNC(=O)c1c(C)[nH]c(/C=C2\C(=O)Nc3ccc(-c4cnn(-c5nccs5)c4)cc32)c1C [Example 73] | – |
| 9 | 126 | Cc1[nH]c(/C=C2\C(=O)Nc3ccc(-c4cnn(-c5ccccc5)c4)cc32)c(C)c1C(=O)NC[C@H]1CCCN1 [Example 100] | – |
| 42 | 82 | CCN(CC)CCNC(=O)c1c(C)[nH]c(/C=C2\C(=O)Nc3ccc(-c4cnn(-c5cccnc5)c4)cc32)c1C [Example 79] | – |
| 17 | 140 | Cc1[nH]c(/C=C2\C(=O)Nc3ccc(-c4cnn(-c5ccccc5)c4)cc32)c(C)c1C(=O)NC1CCNCC1 [Example 94] | – |
| 26 | 71 | CCN(CC)CCNC(=O)c1c(C)[nH]c(/C=C2\C(=O)Nc3ccc(-c4cnn(-c5ccc(S(N)(=O)=O)cc5)c4)cc32)c1C [Example 74] | – |
| 29 | 137 | CCN(CC)CCNC(=O)c1c(C)[nH]c(/C=C2\C(=O)Nc3ccc(-c4ccnn4-c4cccc(C)c4)cc32)c1C [Example 61] | – |
